Results on 23 compounds are retold here after US10626112B2, “Heterocyclic sulfonamide derivative and medicine comprising same” (EA PHARMA CO., LTD., priority 2014, dated 2020).

This test concerns the target human TRPA1 (Homo sapiens (Human), UniProt O75762). Nature of the test: Measurement of TRPA1 antagonist activity (2): as (1), different lot of human TRPA1 expression plasmid. It counts as cell-based. To be noted: 293T cells transfected with human TRPA1, allylisothiocyanate 20 μM stimulation, calcium fluorescence, read-out: hTRPA1 IC50. The method, then:
Human embryonic kidney-derived 293T cells were cultured in Dulbecco's Modified Eagle Medium containing 10% fetal bovine serum, 10 unit penicillin, and 10 μg streptomycin, plated on a petri dish having a diameter of 10 cm at 3×10^6 cells, and cultured for 24 hr in a CO2 incubator. A reduced serum medium (manufactured by Invitrogen, trade name: OPTI-MEM, 600 μL), a gene transfer reagent (manufactured by Mirus Bio, trade name: Mirus TransIT-293, 18 μL), and human TRPA1 expression plasmid (6 μg) were mixed, the total amount of the mixture was added to the cells on the petri dish to allow for gene transfer. The cells were recovered about for 8 hr later, plated on a poly-D-lysine coated 384 well black/clear bottom plate at 12,000 cells/well, and cultured overnight.
Measurement of Intracellular Calcium Increase
The 384 well plate was recovered, and the medium was removed. A calcium-bonded fluorescent indicator (manufactured by Molecular Device, trade name: Calcium4 Assay Kit, 38 μL) dissolved in assay buffer (1×HBSS, 20 mM HEPES, pH 7.2) was added, and the cells were stained in a CO2 incubator for 1 hr. The cells were taken out at room temperature, stood for not less than 15 min, a test substance (10 μL) was added by a platereader FDSS7000 (Hamamatsu Photonics K.K.) equipped with a 384ch dispenser. After 10 min, allylisothiocyanate (12 μL) was further added at a final concentration of 20 μM, and changes in the relative fluorescence intensity after addition of allylisothiocyanate were measured for 5 min.
Test Substance Preparation
The test substance was dissolved in dimethyl sulfoxide and serially diluted with an assay buffer containing 0.1% bovine serum albumin (1×HBSS, 20 mM HEPES, pH 7.2) to a 4.8-fold concentration of the evaluation concentration. Allylisothiocyanate, which is a known TRPA1 activator, was dissolved in dimethyl sulfoxide to 100 mM, and further diluted 5-fold (100 μM) of the final concentration, like the test substance.
Calculation of Antagonist Activity
Under the test substance-free conditions, the maximum variation range of the fluorescence intensity before and after allylisothiocyanate stimulation was defined to be 100% activity rate, and the variation range before and after buffer stimulation was defined as 0% activity rate. The activity rate on addition of the test substance was determined, and the numerical value obtained by subtracting the activity rate from 100 was defined to be an inhibitory rate. IC50, which is the concentration of the test substance necessary for reaching the 50% inhibitory rate, was calculated from the sigmoid approximate curve by a spreadsheet software Excel-Fit.
Measurement of TRPA1 Antagonist Activity (2)
By a method similar to that in Experimental Example 1-1 except that the lot of human […] expression plasmid is different, the TRPA1 antagonist activity of the test substance was measured.

pIC50: −log10 of the molar value.

Chain of human TRPA1 (O75762 whole entry): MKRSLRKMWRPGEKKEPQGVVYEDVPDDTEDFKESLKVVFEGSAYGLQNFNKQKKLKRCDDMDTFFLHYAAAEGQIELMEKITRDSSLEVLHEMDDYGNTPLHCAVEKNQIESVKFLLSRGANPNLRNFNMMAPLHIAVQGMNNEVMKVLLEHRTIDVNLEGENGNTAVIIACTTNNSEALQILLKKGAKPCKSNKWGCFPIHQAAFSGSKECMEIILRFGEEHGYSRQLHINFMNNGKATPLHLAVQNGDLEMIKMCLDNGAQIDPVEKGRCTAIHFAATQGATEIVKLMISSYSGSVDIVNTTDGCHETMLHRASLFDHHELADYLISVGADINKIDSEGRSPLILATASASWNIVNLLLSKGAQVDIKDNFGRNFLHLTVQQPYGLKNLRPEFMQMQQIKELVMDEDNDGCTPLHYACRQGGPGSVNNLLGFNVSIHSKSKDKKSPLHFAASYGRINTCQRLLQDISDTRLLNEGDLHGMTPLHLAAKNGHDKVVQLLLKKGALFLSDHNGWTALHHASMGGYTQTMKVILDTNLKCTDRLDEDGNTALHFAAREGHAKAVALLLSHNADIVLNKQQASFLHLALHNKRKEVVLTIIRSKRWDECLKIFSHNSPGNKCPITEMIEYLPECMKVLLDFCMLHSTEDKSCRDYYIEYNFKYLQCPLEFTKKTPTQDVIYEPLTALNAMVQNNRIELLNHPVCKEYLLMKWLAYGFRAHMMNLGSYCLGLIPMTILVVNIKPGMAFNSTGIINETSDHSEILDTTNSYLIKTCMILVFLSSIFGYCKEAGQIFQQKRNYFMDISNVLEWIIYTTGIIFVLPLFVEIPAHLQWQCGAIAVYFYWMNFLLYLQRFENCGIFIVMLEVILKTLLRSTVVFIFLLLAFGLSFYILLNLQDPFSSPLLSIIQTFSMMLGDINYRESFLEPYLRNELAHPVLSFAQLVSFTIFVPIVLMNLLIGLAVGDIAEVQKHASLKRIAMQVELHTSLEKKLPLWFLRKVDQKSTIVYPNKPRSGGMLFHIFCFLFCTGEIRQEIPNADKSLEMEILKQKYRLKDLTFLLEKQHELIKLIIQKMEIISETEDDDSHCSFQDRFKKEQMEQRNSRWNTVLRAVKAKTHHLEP

Usually pIC50 stands for the negative decadic logarithm of the IC50, by convention in mol/L. As for `CN(C)c1nc(CNC(=O)[C@@H]2CCN2S(=O)(=O)c2cc3cc(F)ccc3o2)cc(-c2ccc(C(F)(F)F)nc2)n1` [Example 384, (2S)-N-[[2-(dimethylamino)-6-[6-(trifluoromethyl)-3-pyridyl]pyrimidin-4-yl]methyl]-1-(5-fluorobenzofuran-2-yl)sulfonyl-azetidine-2-carboxamide], the pIC50 is 7.89.

In the case of `O=C(NCc1cc(-c2ccc(C(F)(F)F)cn2)ccn1)[C@@H]1CCN1S(=O)(=O)c1cc2ccccc2o1` [Example 385, (2S)-1-(benzofuran-2-ylsulfonyl)-N-[[4-[5-(trifluoromethyl)-2-pyridyl]-2-pyridyl]methyl]azetidine-2-carboxamide], the pIC50 was 7.89.

Take `O=C(NCc1cc(-c2ccc(C(F)(F)F)cc2)ncn1)[C@@H]1CCN1S(=O)(=O)c1cc2ccccc2o1` [Example 386, (2S)-1-(benzofuran-2-ylsulfonyl)-N-[[6-[4-(trifluoromethyl)phenyl]-pyrimidin-4-yl]methyl]azetidine-2-carboxamide]: the pIC50 is 8.18.

`O=C(NCc1cc(-c2cnc(C(F)(F)F)nc2)ncn1)[C@@H]1CCN1S(=O)(=O)c1cc2cc(F)ccc2o1` [Example 387, (2S)-1-(5-fluorobenzofuran-2-yl)sulfonyl-N-[[6-[2-(trifluoromethyl)pyrimidin-5-yl]pyrimidin-4-yl]methyl]azetidine-2-carboxamide]: the pIC50 is 7.26.

`O=C(NCc1cc(-c2ccc(C(F)(F)F)nc2)ncn1)[C@@H]1CCN1S(=O)(=O)c1cc2cc(F)ccc2o1` [Example 388, (2S)-1-(5-fluorobenzofuran-2-yl)sulfonyl-N-[[6-[6-(trifluoromethyl)-3-pyridyl]pyrimidin-4-yl]methyl]azetidine-2-carboxamide]: the pIC50 is 8.57.

`O=C(NCc1cc(-c2cnc(C(F)(F)F)nc2)ccn1)[C@@H]1CCN1S(=O)(=O)c1cc2cc(F)ccc2o1` [Example 389, (2S)-1-(5-fluorobenzofuran-2-yl)sulfonyl-N-[[4-[2-(trifluoromethyl)pyrimidin-5-yl]-2-pyridyl]methyl]azetidine-2-carboxamide]: the pIC50 was 7.96.

Consider `O=C(NCc1ccc(O)c(-c2cnc(C(F)(F)F)cn2)c1)[C@@H]1CCN1S(=O)(=O)c1cc2cc(F)ccc2o1` [Example 390, (2S)-1-(5-fluorobenzofuran-2-yl)sulfonyl-N-[[4-hydroxy-3-[5-(trifluoromethyl)pyrazin-2-yl]phenyl]methyl]azetidine-2-carboxamide], for which the pIC50 was 8.03.

As to `O=C(NCc1cc(-c2ccc(C(F)(F)F)cn2)cnn1)[C@@H]1CCN1S(=O)(=O)c1cc2cc(F)ccc2o1` [Example 391, (2S)-1-(5-fluorobenzofuran-2-yl)sulfonyl-N-[[5-[5-(trifluoromethyl)-2-pyridyl]pyridazin-3-yl]methyl]azetidine-2-carboxamide], the pIC50 was 7.59.

In the case of `O=C(NCc1cccc(-c2cnc(C(F)(F)F)cn2)c1)[C@@H]1CCN1S(=O)(=O)c1cc2cc(F)ccc2o1` [Example 392, (2S)-1-(5-fluorobenzofuran-2-yl)sulfonyl-N-[[3-[5-(trifluoromethyl)pyrazin-2-yl]phenyl]methyl]azetidine-2-carboxamide], the pIC50 was 8.34.

Consider `O=C(NCc1cc(-c2cnc(C(F)(F)F)cn2)ccn1)[C@@H]1CCN1S(=O)(=O)c1cc2cc(F)ccc2o1` [Example 393, (2S)-1-(5-fluorobenzofuran-2-yl)sulfonyl-N-[[4-[5-(trifluoromethyl)pyrazin-2-yl]-2-pyridyl]methyl]azetidine-2-carboxamide], for which the pIC50 was 8.04.

Turning to `O=C(NCc1cc(-c2ncc(C(F)(F)F)cn2)ccn1)[C@@H]1CCN1S(=O)(=O)c1cc2cc(F)ccc2o1` [Example 394, (2S)-1-(5-fluorobenzofuran-2-yl)sulfonyl-N-[[4-[5-(trifluoromethyl)pyrimidin-2-yl]-2-pyridyl]methyl]azetidine-2-carboxamide], the pIC50 is 7.96.

As for `O=C(NCc1cc(-c2ccc(OC(F)(F)F)cc2)ncn1)[C@@H]1CCN1S(=O)(=O)c1cc2cc(F)ccc2o1` [Example 395], the pIC50 was 8.49.

For the compound `O=C(NCc1cc(-c2ccc(C(F)(F)F)cn2)cnn1)[C@@H]1CCCN1S(=O)(=O)c1cc2cc(F)ccc2o1` [Example 396, (2S)-1-(5-fluorobenzofuran-2-yl)sulfonyl-N-[[5-[5-(trifluoromethyl)-2-pyridyl]pyridazin-3-yl]methyl]pyrrolidine-2-carboxamide], the negative-log IC50 (pIC50) was 8.12.

In the case of `CN(C)c1nc(CNC(=O)[C@@H]2CCCN2S(=O)(=O)c2cc3cc(F)ccc3o2)cc(-c2ccc(C(F)(F)F)cc2O)n1` [Example 397, (2S)-N-[[2-(dimethylamino)-6-[2-hydroxy-4-(trifluoromethyl)phenyl]-pyrimidin-4-yl]methyl]-1-(5-fluorobenzofuran-2-yl)sulfonyl-pyrrolidine-2-carboxamide], the pIC50 is 8.17.

As for `CN(C)c1nc(CNC(=O)[C@@H]2CCN2S(=O)(=O)c2cc3cc(F)ccc3o2)cc(-c2ccc(C(F)(F)F)cc2O)n1` [Example 398, (2S)-N-[[2-(dimethylamino)-6-[2-hydroxy-4-(trifluoromethyl)phenyl]-pyrimidin-4-yl]methyl]-1-(5-fluorobenzofuran-2-yl)sulfonyl-azetidine-2-carboxamide], the pIC50 is 7.68.

In the case of `O=C(NCc1cccc(-c2cnc(C(F)(F)F)cn2)c1)[C@@H]1CCCN1S(=O)(=O)c1cc2cc(F)ccc2o1` [Example 399, (2S)-1-(5-fluorobenzofuran-2-yl)sulfonyl-N-[[3-[5-(trifluoromethyl)pyrazin-2-yl]phenyl]methyl]pyrrolidine-2-carboxamide], the pIC50 was 8.60.

On to `O=C(NCc1cc(-c2ccc(C(F)(F)F)cn2)ncn1)[C@@H]1CCCN1S(=O)(=O)c1cc2cc(F)ccc2o1` [Example 400, (2S)-1-(5-fluorobenzofuran-2-yl)sulfonyl-N-[[6-[5-(trifluoromethyl)-2-pyridyl]pyrimidin-4-yl]methyl]pyrrolidine-2-carboxamide], for which the pIC50 was 8.28.

With `O=C(NCc1cc(-c2ccc(C(F)(F)F)cn2)ncn1)[C@@H]1CCN1S(=O)(=O)c1cc2cc(F)ccc2o1` [Example 401, (2S)-1-(5-fluorobenzofuran-2-yl)sulfonyl-N-[[6-[5-(trifluoromethyl)-2-pyridyl]pyrimidin-4-yl]methyl]azetidine-2-carboxamide], the pIC50 was 7.92.

In the case of `O=C(NCc1ccnc(-c2cnc(C(F)(F)F)nc2)c1)[C@@H]1CCCN1S(=O)(=O)c1cc2cc(F)ccc2o1` [Example 402, (2S)-1-(5-fluorobenzofuran-2-yl)sulfonyl-N-[[2-[2-(trifluoromethyl)pyrimidin-5-yl]-4-pyridyl]methyl]pyrrolidine-2-carboxamide], the pIC50 was 8.46.

Turning to `O=C(NCc1ccnc(-c2cnc(C(F)(F)F)nc2)c1)[C@@H]1CCN1S(=O)(=O)c1cc2cc(F)ccc2o1` [Example 403, (2S)-1-(5-fluorobenzofuran-2-yl)sulfonyl-N-[[2-[2-(trifluoromethyl)pyrimidin-5-yl]-4-pyridyl]methyl]azetidine-2-carboxamide], the pIC50 was 7.89.

Regarding `O=C(NCc1ccc(O)c(-c2ccc(C(F)(F)F)cn2)c1)[C@@H]1CCN1S(=O)(=O)c1cc2cc(F)ccc2o1` [Example 404, (2S)-1-(5-fluorobenzofuran-2-yl)sulfonyl-N-[[4-hydroxy-3-[5-(trifluoromethyl)-2-pyridyl]phenyl]methyl]azetidine-2-carboxamide], the negative-log IC50 (pIC50) was 8.01.

On to `O=C(NCc1cc(-c2cnc(C(F)(F)F)cn2)ccn1)[C@@H]1CCCN1S(=O)(=O)c1cc2cc(F)ccc2o1` [Example 405, (2S)-1-(5-fluorobenzofuran-2-yl)sulfonyl-N-[[4-[5-(trifluoromethyl)pyrazin-2-yl]-2-pyridyl]methyl]pyrrolidine-2-carboxamide], for which the pIC50 was 8.46.

For `O=C(NCc1cc(-c2ccc(OC(F)(F)F)cc2)ncn1)[C@@H]1CCCN1S(=O)(=O)c1cc2cc(F)ccc2o1` [Example 406, (2S)-1-(5-fluorobenzofuran-2-yl)sulfonyl-N-[[6-[4-(trifluoromethoxy)phenyl]-pyrimidin-4-yl]methyl]pyrrolidine-2-carboxamide], the pIC50 is 8.57.
